Laboratory results from US11352340B2, “Pyridine and pyridimine compounds as PI3K-gamma inhibitors” (Incyte Corporation, priority 2016, dated 2022).
Where a name gives a salt, the structure may show the parent alone. Read-outs that look alike come from different tables or passages of the source.

Experiments:
[1] = system: Phosphorylated Ribosomal Protein S6 (RPS6) in THP-1 cells; assay: THP-1 RPS6 ELISA Assay; assay type: cell-based, Human; conditions: MCP-1 stimulated, phospho-RPS6 ELISA, read-out: THP p-RPS6 ELISA IC50
Outline: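 Serum-starved THP-1 cells (2×10^5/well, RPMI) preincubated with compound 2 h at 37° C, then stimulated with 10 nM MCP-1 for 15 min. Lysates assayed by phospho-RPS6 ELISA, absorbance 450 nm (540 nm correction); IC50 from percent inhibition versus log concentration.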

[2] = target: PI3Kγ (p110γ) Recombinant Human Protein (Homo sapiens (Human), UniProt P48736); assay: PI3K-γ Scintillation Proximity Assay; assay type: biochemical; conditions: read-out: PI3K-gamma SPA IC50
Outline: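 Recombinant human p110γ (13 nM) with 20 μM PIP2 and 2 μM ATP plus 0.5 μCi [γ-33P]ATP in 20 mM MOPS pH 6.7, 10 mM MgCl2, 5 mM DTT, 0.03% CHAPS, 2% DMSO, 120 min at room temperature. Product captured on WGA SPA beads and counted; IC50 fitted from % of solvent control versus log concentration.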

[3] = target: PI3Kδ (p110δ/p85α) Recombinant Human Protein (Homo sapiens (Human), UniProt O00329); assay: PI3Kδ Scintillation Proximity Assay; assay type: biochemical; conditions: read-out: PI3K-delta SPA IC50
Outline: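 Recombinant human p110δ/p85α (3.4 nM) phosphorylates 20 μM di-octanoyl PIP2 using 2 μM ATP spiked with [γ-33P]ATP, 120 min, room temperature, pH 6.7, 2% DMSO. Product measured by scintillation proximity; IC50 from dose-response fit.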

Sequence of PI3Kγ (p110γ) Recombinant Human Protein (P48736 whole entry): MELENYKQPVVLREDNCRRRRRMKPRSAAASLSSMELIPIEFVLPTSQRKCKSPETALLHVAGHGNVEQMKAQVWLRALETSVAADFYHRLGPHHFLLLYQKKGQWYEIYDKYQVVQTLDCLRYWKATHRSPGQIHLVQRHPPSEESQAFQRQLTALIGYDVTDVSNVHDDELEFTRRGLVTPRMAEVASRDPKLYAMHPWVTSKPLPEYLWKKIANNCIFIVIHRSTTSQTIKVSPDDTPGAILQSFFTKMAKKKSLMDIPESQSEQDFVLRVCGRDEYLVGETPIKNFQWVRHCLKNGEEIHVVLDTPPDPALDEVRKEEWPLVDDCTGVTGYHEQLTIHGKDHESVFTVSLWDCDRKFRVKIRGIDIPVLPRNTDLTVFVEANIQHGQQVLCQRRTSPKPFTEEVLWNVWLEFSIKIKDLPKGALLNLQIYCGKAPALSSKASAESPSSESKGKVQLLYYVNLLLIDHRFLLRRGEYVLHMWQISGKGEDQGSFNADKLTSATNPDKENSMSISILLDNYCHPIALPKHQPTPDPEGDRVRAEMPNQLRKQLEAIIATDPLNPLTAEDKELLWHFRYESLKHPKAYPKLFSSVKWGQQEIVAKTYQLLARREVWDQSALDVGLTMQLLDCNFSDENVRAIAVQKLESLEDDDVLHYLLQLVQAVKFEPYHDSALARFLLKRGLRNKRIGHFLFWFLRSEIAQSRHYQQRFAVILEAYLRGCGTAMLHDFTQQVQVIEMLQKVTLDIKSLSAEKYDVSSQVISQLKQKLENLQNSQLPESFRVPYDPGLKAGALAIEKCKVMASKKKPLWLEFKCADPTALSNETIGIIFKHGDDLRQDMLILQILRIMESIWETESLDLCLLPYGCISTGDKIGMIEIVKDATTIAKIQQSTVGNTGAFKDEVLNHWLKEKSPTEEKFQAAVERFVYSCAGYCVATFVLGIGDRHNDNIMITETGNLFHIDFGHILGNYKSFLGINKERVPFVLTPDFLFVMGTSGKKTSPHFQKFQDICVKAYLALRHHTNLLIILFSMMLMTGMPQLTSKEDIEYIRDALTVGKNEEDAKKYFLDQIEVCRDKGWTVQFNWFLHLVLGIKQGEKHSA
Sequence of PI3Kδ (p110δ/p85α) Recombinant Human Protein (O00329 whole entry): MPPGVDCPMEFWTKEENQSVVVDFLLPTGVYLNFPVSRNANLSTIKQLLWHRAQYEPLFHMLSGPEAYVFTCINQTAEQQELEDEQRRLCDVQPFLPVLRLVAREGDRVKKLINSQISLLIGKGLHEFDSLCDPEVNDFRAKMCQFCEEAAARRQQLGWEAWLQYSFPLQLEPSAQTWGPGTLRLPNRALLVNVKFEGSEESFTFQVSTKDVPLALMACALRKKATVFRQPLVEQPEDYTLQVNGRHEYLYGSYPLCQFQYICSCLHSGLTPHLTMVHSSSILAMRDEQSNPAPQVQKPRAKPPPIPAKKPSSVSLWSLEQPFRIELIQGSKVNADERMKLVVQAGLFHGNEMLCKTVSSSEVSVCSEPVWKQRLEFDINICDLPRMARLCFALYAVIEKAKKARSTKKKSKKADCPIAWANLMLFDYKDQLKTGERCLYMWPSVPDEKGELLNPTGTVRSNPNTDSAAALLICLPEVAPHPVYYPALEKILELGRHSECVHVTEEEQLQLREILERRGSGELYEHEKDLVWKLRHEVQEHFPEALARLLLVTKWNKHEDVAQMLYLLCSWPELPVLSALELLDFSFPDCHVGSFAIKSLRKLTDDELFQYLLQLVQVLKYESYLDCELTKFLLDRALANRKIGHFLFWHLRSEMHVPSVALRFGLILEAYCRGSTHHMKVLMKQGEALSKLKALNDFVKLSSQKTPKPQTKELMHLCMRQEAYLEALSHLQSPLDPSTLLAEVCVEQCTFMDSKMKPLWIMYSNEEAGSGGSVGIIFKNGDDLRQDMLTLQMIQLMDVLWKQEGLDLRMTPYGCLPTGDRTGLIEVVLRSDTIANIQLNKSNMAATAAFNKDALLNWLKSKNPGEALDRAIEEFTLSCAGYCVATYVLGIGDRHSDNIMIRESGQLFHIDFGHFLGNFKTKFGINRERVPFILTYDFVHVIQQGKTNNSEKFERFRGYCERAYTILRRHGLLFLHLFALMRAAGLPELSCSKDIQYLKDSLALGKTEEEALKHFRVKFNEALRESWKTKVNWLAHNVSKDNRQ
Sequence of PI3Kδ (p110δ/p85α) Recombinant Human Protein (P27986 whole entry partner): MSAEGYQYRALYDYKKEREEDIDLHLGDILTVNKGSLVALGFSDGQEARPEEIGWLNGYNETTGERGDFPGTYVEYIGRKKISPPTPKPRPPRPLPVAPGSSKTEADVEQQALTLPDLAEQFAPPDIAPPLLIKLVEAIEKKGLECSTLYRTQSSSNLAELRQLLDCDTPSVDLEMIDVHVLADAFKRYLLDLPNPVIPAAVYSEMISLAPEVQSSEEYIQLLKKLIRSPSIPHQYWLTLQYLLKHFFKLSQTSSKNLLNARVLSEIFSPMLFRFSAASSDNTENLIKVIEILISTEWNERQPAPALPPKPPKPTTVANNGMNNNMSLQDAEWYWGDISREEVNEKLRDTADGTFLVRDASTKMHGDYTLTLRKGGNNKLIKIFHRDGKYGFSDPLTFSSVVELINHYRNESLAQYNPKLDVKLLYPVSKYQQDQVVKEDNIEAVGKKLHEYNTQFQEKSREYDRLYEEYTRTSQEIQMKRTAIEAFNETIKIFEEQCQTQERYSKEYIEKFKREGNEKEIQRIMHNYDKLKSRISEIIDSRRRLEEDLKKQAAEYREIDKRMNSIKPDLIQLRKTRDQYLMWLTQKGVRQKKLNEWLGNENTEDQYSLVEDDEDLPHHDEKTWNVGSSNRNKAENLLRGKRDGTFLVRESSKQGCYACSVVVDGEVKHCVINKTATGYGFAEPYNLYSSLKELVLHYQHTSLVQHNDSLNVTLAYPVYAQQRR

| SMILES | IC50 ([1]; Homo sapiens) [nM] | IC50 [2] [nM] | IC50 [3] [nM] | IC50 [1] [nM] |
| --- | --- | --- | --- | --- |
| COc1cncc(-c2ccnc(-c3ncc(-c4ccccn4)[nH]3)c2)c1 [Example 87, 5-Methoxy-2′-(5-(pyridin-2-yl)-1H-imidazol-2-yl)-3,4′-bipyridine trifluoroacetate salt] | > 5000 | ≤ 100 | ≤ 50 |  |
| Cc1nc(-c2cc(-c3cncc(C(=O)N4C5CCC4CC5)c3)ccn2)[nH]c1C [Example 179, 5-(7-Azabicyclo[2.2.1]hept-7-ylcarbonyl)-2′-(4,5-dimethyl-1H-imidazol-2-yl)-3,4′-bipyridine trifluoroacetate salt] | ≤ 300 | ≤ 50 | ≤ 100 |  |
| COc1cncc(-c2ccnc(-c3nnc(NC(C)C)[nH]3)c2)c1 [Example 67, N-Isopropyl-5-(5-methoxy-3,4′-bipyridin-2′-yl)-4H-1,2,4-triazol-3-amine trifluoroacetate salt] | > 5000 | ≤ 500 | ≤ 500 |  |
| c1cc(-c2cncc(N3CCOCC3)c2)cc(-c2ncc(C3CCC3)[nH]2)n1 [Example 103, 4-(2′-(5-Cyclobutyl-1H-imidazol-2-yl)-3,4′-bipyridin-5-yl)morpholine trifluoroacetate salt] | 1000 to 5000 | ≤ 100 | ≤ 50 |  |
| Cc1[nH]c(-c2cc(-c3cncc(N4CCOCC4)c3)ccn2)nc1C(=O)N[C@H]1CCN(Cc2ccccc2)C1 [Example 279, N-[(3S)-1-Benzylpyrrolidin-3-yl]-5-methyl-2-(5-morpholin-4-yl-3,4′-bipyridin-2′-yl)-1H-imidazole-4-carboxamide trifluoroacetate salt] | ≤ 300 | ≤ 100 | ≤ 50 |  |
| CS(=O)(=O)N1CCC(c2c[nH]c(-c3cc(-c4cnn(Cc5ccc(Cl)cc5)c4)ccn3)n2)C1 (single isomer, unassigned) [Example 300, 4-[1-(4-Chlorobenzyl)-1H-pyrazol-4-yl]-2-{4-[1-(methylsulfonyl)pyrrolidin-3-yl]-1H-imidazol-2-yl}pyridine Trifluoroacetate Salt] | 300 to 1000 | ≤ 50 | ≤ 500 |  |
| Cc1cnc(-c2cc(-c3cncc(S(C)(=O)=O)c3)ccn2)[nH]1 [Example 107, 2′-(5-Methyl-1H-imidazol-2-yl)-5-(methylsulfonyl)-3,4′-bipyridine trifluoroacetate salt] | ≤ 300 | ≤ 100 | ≤ 100 |  |
| Cc1nc(-c2cc(-c3cncc(C(=O)N4CCC(CCO)C4)c3)ccn2)[nH]c1C (racemic) [Example 169, (2′-(4,5-Dimethyl-1H-imidazol-2-yl)-3,4′-bipyridin-5-yl)(3-(2-hydroxyethyl)pyrrolidin-1-yl)methanone] | 1000 to 5000 | ≤ 100 | ≤ 50 |  |
| O=S(=O)(C1CC1)n1cc(-c2ccnc(-c3ncc(-c4ccccc4)[nH]3)c2)cn1 [Example 46, 4-(1-(Cyclopropylsulfonyl)-1H-pyrazol-4-yl)-2-(5-phenyl-1H-imidazol-2-yl)pyridine trifluoroacetate salt] | > 5000 | ≤ 100 | ≤ 500 |  |
| Cc1[nH]c(-c2cc(-c3cncc(N4CCOCC4)c3)ccn2)nc1CO [Example 122, [5-Methyl-2-(5-morpholin-4-yl-3,4′-bipyridin-2′-yl)-1H-imidazol-4-yl]methanol] | 1000 to 5000 | ≤ 500 | ≤ 500 |  |
| Cc1nc(-c2cc(-c3cncc(C(=O)NCC4CC4)c3)ccn2)[nH]c1C [Example 202, N-(Cyclopropylmethyl)-2′-(4,5-dimethyl-1H-imidazol-2-yl)-3,4′-bipyridine-5-carboxamide trifluoroacetate salt] | 300 to 1000 | ≤ 100 | ≤ 100 |  |
| Cc1nc(-c2cc(-c3cncc(C(=O)N4CCC(=O)C4)c3)ccn2)[nH]c1C [Example 168, 1-(2′-(4,5-Dimethyl-1H-imidazol-2-yl)-3,4′-bipyridine-5-carbonyl)pyrrolidin-3-one trifluoroacetate salt] | ≤ 300 | ≤ 50 | ≤ 50 |  |
| CS(=O)(=O)c1cncc(-c2ccnc(-c3ncc(C(F)(F)F)[nH]3)c2)c1 [Example 109, 5-(Methylsulfonyl)-2′-(5-(trifluoromethyl)-1H-imidazol-2-yl)-3,4′-bipyridine trifluoroacetate salt] | 300 to 1000 | ≤ 50 | ≤ 50 |  |

The next lines start with the values.

| IC50 ([1]; Homo sapiens) [nM] | IC50 [2] [nM] | IC50 [3] [nM] | IC50 [1] [nM] | SMILES |
| --- | --- | --- | --- | --- |
| 300 to 1000 | ≤ 50 | ≤ 500 |  | Cc1nc(-c2cc(-c3cncc(C(=O)N(C)CCO)c3)ccn2)[nH]c1C [Example 201, 2′-(4,5-Dimethyl-1H-imidazol-2-yl)-N-(2-hydroxyethyl)-N-methyl-3,4′-bipyridine-5-carboxamide trifluoroacetate salt] |
| ≤ 300 | ≤ 50 | ≤ 50 |  | Cc1nc(-c2cc(-c3cncc(S(C)(=O)=O)c3)ccn2)[nH]c1C1CC1 [Example 116, 2′-(5-Cyclopropyl-4-methyl-1H-imidazol-2-yl)-5-(methylsulfonyl)-3,4′-bipyridine trifluoroacetate salt] |
| > 5000 | ≤ 50 | > 500 |  | Cc1nc(-c2cc(-c3cnn(Cc4ccc(Cl)cc4)c3)ccn2)[nH]c1C [Example 294, 4-(1-(4-Chlorobenzyl)-1H-pyrazol-4-yl)-2-(4,5-dimethyl-1H-imidazol-2-yl)pyridine Trifluoroacetate Salt] |
| 300 to 1000 | ≤ 50 | ≤ 50 |  | Cc1[nH]c(-c2cc(-c3cncc(N4CCOCC4)c3)ccn2)nc1C(=O)N[C@@H]1CCOC1 [Example 270, 5-Methyl-2-(5-morpholin-4-yl-3,4′-bipyridin-2′-yl)-N-[(3R)-tetrahydrofuran-3-yl]-1H-imidazole-4-carboxamide trifluoroacetate salt] |
|  | ≤ 50 | ≤ 50 | > 5000 | Cc1[nH]c(-c2cc(-c3cncc(S(C)(=O)=O)c3)ccn2)nc1C(=O)N1CC(O)C1 [Example 247, l-({5-Methyl-2-[5-(methylsulfonyl)-3,4′-bipyridin-2′-yl]-1H-imidazol-4-yl}carbonyl)azetidin-3-ol] |
| ≤ 300 | ≤ 50 | ≤ 50 |  | COC1CN(C(=O)c2cncc(-c3ccnc(-c4nc(C)c(C)[nH]4)c3)c2)C1 [Example 199, 2′-(4,5-Dimethyl-1H-imidazol-2-yl)-5-[(3-methoxyazetidin-1-yl)carbonyl]-3,4′-bipyridine] |
| > 5000 | ≤ 50 | ≤ 500 |  | FC(F)(F)c1cnc(-c2cc(-c3cncc(N4CCOCC4)c3)ccn2)[nH]1 [Example 99, 4-(2′-(5-(Trifluoromethyl)-1H-imidazol-2-yl)-3,4′-bipyridin-5-yl)morpholine trifluoroacetate salt] |
| 300 to 1000 | ≤ 50 | ≤ 50 |  | Cc1nc(-c2cc(-c3cncc(C(=O)N4CCC(C#N)C4)c3)ccn2)[nH]c1C (racemic) [Example 183, 1-{[2′-(4,5-Dimethyl-1H-imidazol-2-yl)-3,4′-bipyridin-5-yl]carbonyl}pyrrolidine-3-carbonitrile trifluoroacetate salt] |
| ≤ 300 | ≤ 50 | ≤ 50 |  | Cc1[nH]c(-c2cc(-c3cncc(N4CCOCC4)c3)ccn2)nc1C(=O)N[C@@H](C)c1ccccc1 [Example 273, 5-Methyl-2-(5-morpholin-4-yl-3,4′-bipyridin-2′-yl)-N-[(1S)-1-phenylethyl]-1H-imidazole-4-carboxamide trifluoroacetate salt] |
